In brackets after ≈: the same amount, converted by molar mass.
Conditions: 25 °C

| solubility | SMILES |
| --- | --- |
| 28.5 mM (≈ 3310 µg/mL) | CC(C)(C)CCCO |
| 0.234 mM (≈ 37 µg/mL) | CCCCCCCCCCO |
| 83.5 mM (≈ 9700 µg/mL) | CCCCC(C)(C)O |
| 4.15 mM (≈ 540 µg/mL) | CCCCCCCCO |
| 101 mM (≈ 11700 µg/mL) | CCC[C@](C)(O)CC |
| 380 mM (≈ 38100 µg/mL) | CC=CC(O)CC (stereo not drawn) |
| 40.4 mM (≈ 4700 µg/mL) | CCCC(O)CCC |
| 41.9 mM (≈ 4870 µg/mL) | CC(C)CCC(C)O (stereo not drawn) |
| 73.4 mM (≈ 7500 µg/mL) | CC(C)CCCO |
| 635 mM (≈ 56000 µg/mL) | CC(C)C(C)O (stereo not drawn) |
| 305 mM (≈ 30600 µg/mL) | C=CC(O)C(C)C (stereo not drawn) |

Same assay, conditions: 28 °C

| solubility | SMILES |
| --- | --- |
| 23.2 mM (≈ 3020 µg/mL) | CCCCC(C)(O)CC (stereo not drawn) |

Same assay, conditions: 30 °C

| solubility | SMILES |
| --- | --- |
| 19.1 mM (≈ 2490 µg/mL) | CCCCCC(C)(C)O |

From the OPERA property sets (Mansouri et al. 2018)
